In US20090318469A1, “Use of Flibanserin for the Treatment of Sexual Disorders in Females” (Boehringer Ingelheim International GmbH, priority 2006, published 2009):

Experiments:
[1] = test system: Sexual Disorders and/or Dysfunctions; assay: studies of female patients suffering from Sexual Disorders; type: in vivo; details: free base or acceptable derivative, qualitative
5-HT1A receptor = target: T1, 5-HT1A receptor (Homo sapiens, UniProt P08908); details: background statement, qualitative; cited from earlier work
T1 sequence (P08908 1-422): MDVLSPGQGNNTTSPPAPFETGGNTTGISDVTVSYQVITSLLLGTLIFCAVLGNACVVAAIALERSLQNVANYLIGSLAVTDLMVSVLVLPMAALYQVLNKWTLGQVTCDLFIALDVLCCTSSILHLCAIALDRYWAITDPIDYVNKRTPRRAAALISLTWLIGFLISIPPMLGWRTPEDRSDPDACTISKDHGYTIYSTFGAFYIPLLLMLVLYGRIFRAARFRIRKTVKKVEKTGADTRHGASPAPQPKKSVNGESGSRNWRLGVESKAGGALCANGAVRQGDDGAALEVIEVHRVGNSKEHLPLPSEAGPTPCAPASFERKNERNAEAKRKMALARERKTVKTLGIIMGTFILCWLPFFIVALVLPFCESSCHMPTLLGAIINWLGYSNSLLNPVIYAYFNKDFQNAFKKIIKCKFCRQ

5-HT2-receptor = details: background statement, qualitative; cited from earlier work

O=c1[nH]c2ccccc2n1CCN1CCN(c2cccc(C(F)(F)F)c2)CC1 [Flibanserin, 1-[2-(4-(3-trifluoromethyl-phenyl)piperazin-1-yl)ethyl]-2,3-dihydro-1H-benzimidazol-2-one]
effect on Sexual Disorders and/or Dysfunctions [1]: positive effect
affinity for the 5-HT1A receptor (5-HT1A receptor): shows affinity
affinity for the 5-HT2-receptor (5-HT2-receptor): shows affinity
